± gives the expanded uncertainty stated by the source.
Experiment: mn = molality of the nth substance listed, in mol/kg
Conditions: 101.33 kPa, Liquid; for speed of sound: Frequency=3 MHz, Linear variable-path acoustic interferometer; for mass density: Pycnometric method; for viscosity: Capillary tube (Ostwald / Ubbelohde) method

A speed of sound (293.15 K, m1 = 0.0249) of 1488.8 ± 2.5 m/s, a speed of sound (293.15 K, m1 = 0.0498) of 1493 ± 2.5 m/s and a speed of sound (293.15 K, m1 = 0.0749) of 1496.2 ± 2.5 m/s were found for `N[C@@H](Cc1ccccc1)C(=O)O` [L-phenylalanine] + O in this work. It also gave a speed of sound (293.15 K, m1 = 0.0999) of 1498.3 ± 2.5 m/s, a speed of sound (293.15 K, m1 = 0.125) of 1499.4 ± 2.5 m/s and a speed of sound (293.15 K, m1 = 0.1499) of 1499.4 ± 2.5 m/s. For the same molecule, the mass density (293.15 K, m1 = 0.0249) was 999.4 ± 0.35 kg/m3, the mass density (293.15 K, m1 = 0.0498) was 1000.55 ± 0.35 kg/m3 and the mass density (293.15 K, m1 = 0.0749) was 1001.71 ± 0.35 kg/m3. For the same molecule, the mass density (293.15 K, m1 = 0.0999) was 1002.88 ± 0.35 kg/m3, the mass density (293.15 K, m1 = 0.125) was 1004.04 ± 0.35 kg/m3 and the mass density (293.15 K, m1 = 0.1499) was 1005.2 ± 0.35 kg/m3. For the same molecule, the viscosity (298.15 K, m1 = 0.0249) was 0.9038 ± 0.019 mPa·s, the viscosity (298.15 K, m1 = 0.0498) was 0.9168 ± 0.019 mPa·s and the viscosity (298.15 K, m1 = 0.0749) was 0.9299 ± 0.02 mPa·s. The viscosity (298.15 K, m1 = 0.0999) was 0.9431 ± 0.02 mPa·s, the viscosity (298.15 K, m1 = 0.125) was 0.9561 ± 0.02 mPa·s and the viscosity (298.15 K, m1 = 0.1499) was 0.9691 ± 0.021 mPa·s. The speed of sound (298.15 K, m1 = 0.0249) was 1501.9 ± 2.5 m/s, the speed of sound (298.15 K, m1 = 0.0498) was 1505.9 ± 2.5 m/s and the speed of sound (298.15 K, m1 = 0.0749) was 1509 ± 2.5 m/s. It also gave a speed of sound (298.15 K, m1 = 0.0999) of 1511 ± 2.5 m/s, a speed of sound (298.15 K, m1 = 0.125) of 1512 ± 2.5 m/s and a speed of sound (298.15 K, m1 = 0.1499) of 1511.9 ± 2.5 m/s. The mass density (298.15 K, m1 = 0.0249) was 998.23 ± 0.37 kg/m3, the mass density (298.15 K, m1 = 0.0498) was 999.39 ± 0.37 kg/m3 and the mass density (298.15 K, m1 = 0.0749) was 1000.55 ± 0.37 kg/m3. The mass density (298.15 K, m1 = 0.0999) was 1001.72 ± 0.37 kg/m3, the mass density (298.15 K, m1 = 0.125) was 1002.88 ± 0.37 kg/m3 and the mass density (298.15 K, m1 = 0.1499) was 1004.05 ± 0.37 kg/m3. For the same molecule, the viscosity (303.15 K, m1 = 0.0249) was 0.8083 ± 0.017 mPa·s, the viscosity (303.15 K, m1 = 0.0498) was 0.819 ± 0.017 mPa·s and the viscosity (303.15 K, m1 = 0.0749) was 0.8294 ± 0.018 mPa·s. The viscosity (303.15 K, m1 = 0.0999) was 0.8399 ± 0.018 mPa·s, the viscosity (303.15 K, m1 = 0.125) was 0.8505 ± 0.018 mPa·s and the viscosity (303.15 K, m1 = 0.1499) was 0.8605 ± 0.018 mPa·s. The speed of sound (303.15 K, m1 = 0.0249) was 1513.1 ± 2.5 m/s, the speed of sound (303.15 K, m1 = 0.0498) was 1516.8 ± 2.5 m/s and the speed of sound (303.15 K, m1 = 0.0749) was 1519.5 ± 2.5 m/s. It also gave a speed of sound (303.15 K, m1 = 0.0999) of 1521.2 ± 2.5 m/s, a speed of sound (303.15 K, m1 = 0.125) of 1521.8 ± 2.5 m/s and a speed of sound (303.15 K, m1 = 0.1499) of 1521.3 ± 2.5 m/s. For the same molecule, the mass density (303.15 K, m1 = 0.0249) was 996.84 ± 0.4 kg/m3, the mass density (303.15 K, m1 = 0.0498) was 998 ± 0.4 kg/m3 and the mass density (303.15 K, m1 = 0.0749) was 999.17 ± 0.4 kg/m3. For the same molecule, the mass density (303.15 K, m1 = 0.0999) was 1000.34 ± 0.4 kg/m3, the mass density (303.15 K, m1 = 0.125) was 1001.51 ± 0.4 kg/m3 and the mass density (303.15 K, m1 = 0.1499) was 1002.68 ± 0.4 kg/m3. It also gave a viscosity (308.15 K, m1 = 0.0249) of 0.7285 ± 0.015 mPa·s, a viscosity (308.15 K, m1 = 0.0498) of 0.7372 ± 0.016 mPa·s and a viscosity (308.15 K, m1 = 0.0749) of 0.7462 ± 0.016 mPa·s. It also gave a viscosity (308.15 K, m1 = 0.0999) of 0.7545 ± 0.016 mPa·s, a viscosity (308.15 K, m1 = 0.125) of 0.7635 ± 0.016 mPa·s and a viscosity (308.15 K, m1 = 0.1499) of 0.7722 ± 0.016 mPa·s. The speed of sound (308.15 K, m1 = 0.0249) was 1524.1 ± 2.5 m/s, the speed of sound (308.15 K, m1 = 0.0498) was 1527.4 ± 2.5 m/s and the speed of sound (308.15 K, m1 = 0.0749) was 1529.8 ± 2.5 m/s. The speed of sound (308.15 K, m1 = 0.0999) was 1531.1 ± 2.5 m/s, the speed of sound (308.15 K, m1 = 0.125) was 1531.4 ± 2.5 m/s and the speed of sound (308.15 K, m1 = 0.1499) was 1530.6 ± 2.5 m/s. For the same molecule, the mass density (308.15 K, m1 = 0.0249) was 995.24 ± 0.43 kg/m3, the mass density (308.15 K, m1 = 0.0498) was 996.4 ± 0.43 kg/m3 and the mass density (308.15 K, m1 = 0.0749) was 997.58 ± 0.43 kg/m3. The mass density (308.15 K, m1 = 0.0999) was 998.75 ± 0.43 kg/m3, the mass density (308.15 K, m1 = 0.125) was 999.92 ± 0.43 kg/m3 and the mass density (308.15 K, m1 = 0.1499) was 1001.09 ± 0.43 kg/m3. The viscosity (313.15 K, m1 = 0.0249) was 0.6607 ± 0.014 mPa·s, the viscosity (313.15 K, m1 = 0.0498) was 0.668 ± 0.014 mPa·s and the viscosity (313.15 K, m1 = 0.0749) was 0.6749 ± 0.014 mPa·s. The viscosity (313.15 K, m1 = 0.0999) was 0.682 ± 0.015 mPa·s, the viscosity (313.15 K, m1 = 0.125) was 0.6897 ± 0.015 mPa·s and the viscosity (313.15 K, m1 = 0.1499) was 0.6968 ± 0.015 mPa·s. It also gave a speed of sound (313.15 K, m1 = 0.0249) of 1530.8 ± 2.5 m/s, a speed of sound (313.15 K, m1 = 0.0498) of 1533.8 ± 2.5 m/s and a speed of sound (313.15 K, m1 = 0.0749) of 1535.8 ± 2.5 m/s. The speed of sound (313.15 K, m1 = 0.0999) was 1536.8 ± 2.5 m/s, the speed of sound (313.15 K, m1 = 0.125) was 1536.7 ± 2.5 m/s and the speed of sound (313.15 K, m1 = 0.1499) was 1535.7 ± 2.5 m/s. For the same molecule, the mass density (313.15 K, m1 = 0.0249) was 993.43 ± 0.46 kg/m3, the mass density (313.15 K, m1 = 0.0498) was 994.6 ± 0.46 kg/m3 and the mass density (313.15 K, m1 = 0.0749) was 995.78 ± 0.46 kg/m3. For the same molecule, the mass density (313.15 K, m1 = 0.0999) was 996.96 ± 0.46 kg/m3, the mass density (313.15 K, m1 = 0.125) was 998.14 ± 0.46 kg/m3 and the mass density (313.15 K, m1 = 0.1499) was 999.32 ± 0.46 kg/m3. The viscosity (318.15 K, m1 = 0.0249) was 0.604 ± 0.013 mPa·s, the viscosity (318.15 K, m1 = 0.0498) was 0.6102 ± 0.013 mPa·s and the viscosity (318.15 K, m1 = 0.0749) was 0.616 ± 0.013 mPa·s. For the same molecule, the viscosity (318.15 K, m1 = 0.0999) was 0.622 ± 0.013 mPa·s, the viscosity (318.15 K, m1 = 0.125) was 0.6285 ± 0.013 mPa·s and the viscosity (318.15 K, m1 = 0.1499) was 0.6346 ± 0.013 mPa·s. For the same molecule, the speed of sound (318.15 K, m1 = 0.0249) was 1536.5 ± 2.5 m/s, the speed of sound (318.15 K, m1 = 0.0498) was 1539.1 ± 2.5 m/s and the speed of sound (318.15 K, m1 = 0.0749) was 1540.8 ± 2.5 m/s. For the same molecule, the speed of sound (318.15 K, m1 = 0.0999) was 1541.5 ± 2.5 m/s, the speed of sound (318.15 K, m1 = 0.125) was 1541.3 ± 2.5 m/s and the speed of sound (318.15 K, m1 = 0.1499) was 1540 ± 2.5 m/s. For the same molecule, the mass density (318.15 K, m1 = 0.0249) was 991.43 ± 0.48 kg/m3, the mass density (318.15 K, m1 = 0.0498) was 992.61 ± 0.48 kg/m3 and the mass density (318.15 K, m1 = 0.0749) was 993.8 ± 0.48 kg/m3. For the same molecule, the mass density (318.15 K, m1 = 0.0999) was 994.98 ± 0.48 kg/m3, the mass density (318.15 K, m1 = 0.125) was 996.17 ± 0.48 kg/m3 and the mass density (318.15 K, m1 = 0.1499) was 997.36 ± 0.48 kg/m3.

Source: the NIST ThermoML archive (doi:10.1016/j.jct.2013.09.008)
